# Publication PMC2747480 (Journal of medicinal chemistry, 2009)
# “Also recorded” adds a separate entry of the source.
# Experiments:
# [1] = test system: Bax/Bak double knockout MEF cells (DKO/MEFs); assay: Bax/Bak double knockout MEF cytotoxicity, FITC-Annexin V/PI assay; type: cell-based, mouse; settings: 10 μM, result in words
# [2] = in vitro plasma stability
# [3] = in vitro microsomal stability; settings: rat microsomes
# [4] = chemical stability as solid powder at room temperature; type: physicochemical; settings: in air, no ascorbic acid
# [5] = result in words; cited from earlier work
# [6] = molecular target: T1, Bfl-1 (Homo sapiens, UniProt Q16548); assay: competitive fluorescence polarization assay; type: binding; settings: relative to compound 2
# T1 sequence (Q16548 1-175): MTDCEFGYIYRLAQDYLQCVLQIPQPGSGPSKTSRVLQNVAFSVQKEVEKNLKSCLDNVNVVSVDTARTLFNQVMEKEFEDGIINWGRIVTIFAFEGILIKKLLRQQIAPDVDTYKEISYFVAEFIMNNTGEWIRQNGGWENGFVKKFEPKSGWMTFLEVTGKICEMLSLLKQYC
# [7] = molecular target: GST-Mcl-1 (Homo sapiens, UniProt Q07820); assay: competitive fluorescence polarization assay; type: binding; settings: relative to compound 2
# [8] = molecular target: Bcl-XL (Homo sapiens, UniProt Q07817); assay: Isothermal Titration Calorimetry; type: binding; settings: relative to compound 2
# [9] = molecular target: GST-Bcl-2 (Homo sapiens, UniProt P10415); assay: competitive fluorescence polarization assay; type: binding; settings: relative to compound 2
# [10] = single dose of 100, 75, 50 and 25 mg/kg ip, 14 days, result in words
# [11] = molecular target: GST–Bcl-XL ΔTM protein (Homo sapiens, UniProt Q07817); assay: competitive fluorescence polarization assay; type: binding; settings: relative to compound 2
# [12] = test system: Bcl-2 transgenic mice; assay: spleen weight reduction in Bcl-2 transgenic mice; type: in vivo, mouse; settings: single ip injection, 72 μmol/kg, result in words
# [13] = test system: RS11846 cells; assay: RS11846 apoptosis, Annexin V-FITC and propidium iodide assay; settings: result in words
# [14] = test system: BP3 cells; assay: BP3 cells, Annexin V-FITC and propidium iodide assay; settings: result in words
# Sequence of GST-Mcl-1 (Q07820 whole entry): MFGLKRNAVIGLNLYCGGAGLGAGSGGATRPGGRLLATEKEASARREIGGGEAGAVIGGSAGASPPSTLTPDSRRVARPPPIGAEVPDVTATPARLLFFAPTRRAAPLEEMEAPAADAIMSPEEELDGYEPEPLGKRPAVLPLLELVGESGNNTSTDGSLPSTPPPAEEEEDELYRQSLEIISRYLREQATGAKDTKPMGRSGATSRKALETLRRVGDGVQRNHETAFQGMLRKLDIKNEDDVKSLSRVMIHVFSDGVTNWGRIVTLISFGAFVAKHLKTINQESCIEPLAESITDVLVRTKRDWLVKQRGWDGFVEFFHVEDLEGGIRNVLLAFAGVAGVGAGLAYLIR
# Sequence of GST–Bcl-XL ΔTM protein (Q07817 1-209 limits assumed, stated change not applied): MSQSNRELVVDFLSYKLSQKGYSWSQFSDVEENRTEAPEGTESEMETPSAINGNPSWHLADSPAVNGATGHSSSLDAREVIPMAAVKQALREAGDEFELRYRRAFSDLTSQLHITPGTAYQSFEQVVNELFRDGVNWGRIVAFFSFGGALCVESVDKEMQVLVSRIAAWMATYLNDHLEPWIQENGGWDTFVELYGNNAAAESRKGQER
# Sequence of Bcl-XL (Q07817 whole entry): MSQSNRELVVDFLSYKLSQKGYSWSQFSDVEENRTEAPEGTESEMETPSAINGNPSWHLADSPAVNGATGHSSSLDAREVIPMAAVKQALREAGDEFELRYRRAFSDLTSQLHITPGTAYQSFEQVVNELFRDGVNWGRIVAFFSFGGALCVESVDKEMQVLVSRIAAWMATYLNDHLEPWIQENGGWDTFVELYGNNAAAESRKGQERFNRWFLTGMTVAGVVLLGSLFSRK
# Sequence of GST-Bcl-2 (P10415 whole entry): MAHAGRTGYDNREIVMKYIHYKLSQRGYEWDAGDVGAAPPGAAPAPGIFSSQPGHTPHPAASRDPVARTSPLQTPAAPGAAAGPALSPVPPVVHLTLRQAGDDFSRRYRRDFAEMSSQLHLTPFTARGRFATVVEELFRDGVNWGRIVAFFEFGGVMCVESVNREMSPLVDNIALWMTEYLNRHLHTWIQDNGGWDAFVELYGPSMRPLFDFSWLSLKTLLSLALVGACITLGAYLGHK
structure (smiles),measurement,setting,value
"Cc1cc2c(C(C)C)c(O)c(O)c(C=O)c2c(O)c1-c1c(C)cc2c(C(C)C)c(O)c(O)c(C=O)c2c1O [Compound 1, 1,1′,6,6′,7,7′-Hexahydroxy-5,5′-diisopropyl-3,3′-dimethyl-2,2′-binaphthyl-8,8′-dicarboxaldehyde, reference compound]",killing of DKO/MEFs (bax−/−bak−/− cells),[1],equally effective in killing both wt MEFs and MEF/DKOs
"Cc1cc2c(C(C)C)c(O)c(O)cc2c(O)c1-c1c(C)cc2c(C(C)C)c(O)c(O)cc2c1O [Compound 2, 5,5′-Diisopropyl-1,1′,6,6′,7,7′-hexahydroxy-3,3′-dimethyl-2,2′-binaphthalene, reference compound]",killing of DKO/MEFs (bax−/−bak−/− cells),[1],reduced cytotoxicity against MEF/DKOs
same,degraded after 1 h incubation in rat plasma,[2],47%
same,degraded after 1 h incubation in rat microsomal preparations,[3],36%
same,degraded after 60 days at room temperature,[4],~80%
Cc1cc2c(C(=O)Cc3ccccc3)c(O)c(O)cc2c(O)c1-c1c(C)cc2c(C(=O)Cc3ccccc3)c(O)c(O)cc2c1O [Compound 3],GI toxicity in mice,[5],mild GI toxicity
"Cc1cc2c(C(=O)NC(C)c3ccc(Cl)cc3)c(O)c(O)cc2c(O)c1-c1c(C)cc2c(C(=O)NC(C)c3ccc(Cl)cc3)c(O)c(O)cc2c1O (stereo not shown) [Compound 8k, N^5,N^5′-Bis(1-(4-chlorophenyl)ethyl)-1,1′,6,6′,7,7′-hexahydroxy-3,3′-dimethyl-2,2′-binaphthyl-5,5′-dicarboxamide]",killing of DKO/MEFs (bax−/−bak−/− cells),[1],ineffective
"Cc1cc2c(C(=O)NCC3CCCCC3)c(O)c(O)cc2c(O)c1-c1c(C)cc2c(C(=O)NCC3CCCCC3)c(O)c(O)cc2c1O [Compound 8m, N^5,N^5′-Bis(cyclohexylmethyl)-1,1′,6,6′,7,7′-hexahydroxy-3,3′-dimethyl-2,2′-binaphthyl-5,5′-dicarboxamide]",killing of DKO/MEFs (bax−/−bak−/− cells),[1],ineffective
same,degraded after 1 h incubation in rat plasma,[2],11%
same,degraded after 1 h incubation in rat microsomal preparations,[3],10%
"Cc1cc2c(C(=O)NCCc3cccc(Cl)c3)c(O)c(O)cc2c(O)c1-c1c(C)cc2c(C(=O)NCCc3cccc(Cl)c3)c(O)c(O)cc2c1O [Compound 8p, N^5,N^5′-Bis(3-chlorophenethyl)-1,1′,6,6′,7,7′-hexahydroxy-3,3′-dimethyl-2,2′-binaphthyl-5,5′-dicarboxamide]",killing of DKO/MEFs (bax−/−bak−/− cells),[1],ineffective
"CCc1ccc(CCNC(=O)c2c(O)c(O)cc3c(O)c(-c4c(C)cc5c(C(=O)NCCc6ccc(CC)cc6)c(O)c(O)cc5c4O)c(C)cc23)cc1 [Compound 8q, N^5,N^5′-Bis(4-ethylphenethyl)-1,1′,6,6′,7,7′-hexahydroxy-3,3′-dimethyl-2,2′-binaphthyl-5,5′-dicarboxamide]",killing of DKO/MEFs (bax−/−bak−/− cells),[1],ineffective
same,degraded after 60 days at room temperature,[4],10%
"Cc1cc2c(C(=O)NCC(C)c3ccccc3)c(O)c(O)cc2c(O)c1-c1c(C)cc2c(C(=O)NCC(C)c3ccccc3)c(O)c(O)cc2c1O (stereo not shown) [Compound 8r, 1,1′,6,6′,7,7′-Hexahydroxy-3,3′-dimethyl-N^5,N^5′-bis(2-phenylpropyl)-2,2′-binaphthyl-5,5′-dicarboxamide]","times higher potency than compound 2, FP Bfl-1",[6],approximately 10 times
same,killing of DKO/MEFs (bax−/−bak−/− cells),[1],ineffective; also recorded: little cytotoxicity
same,"times higher potency than compound 2, FP Mcl-1",[7],approximately 10 times
same,"times more potent than compound 2, ITC Bcl-XL",[8],15 times
same,degraded after 1 h incubation in rat plasma,[2],4%
same,"times higher potency than compound 2, FP Bcl-2",[9],approximately 10 times
same,mortality,[10],All mice were alive after 14 days
same,degraded after 1 h incubation in rat microsomal preparations,[3],24%
same,degraded after 60 days at room temperature,[4],10%
same,"times more effective than 2, FP displacement Bcl-XL",[11],5 times
"Cc1cc2c(CC3CCCC3)c(O)c(O)cc2c(O)c1-c1c(C)cc2c(CC3CCCC3)c(O)c(O)cc2c1O [Compound 12c, 5,5′-Bis(cyclopentylmethyl)-3,3′-dimethyl-2,2′-binaphthyl-1,1′,6,6′,7,7′-hexaol]",in vivo activity in Bcl-2 transgenic mice,[12],lower in vivo activity
"Cc1cc2c(CCc3ccccc3)c(O)c(O)cc2c(O)c1-c1c(C)cc2c(CCc3ccccc3)c(O)c(O)cc2c1O [Compound 12e, 3,3′-Dimethyl-5,5′-diphenethyl-2,2′-binaphthyl-1,1′,6,6′,7,7′-hexaol]",in vivo activity in Bcl-2 transgenic mice,[12],lower in vivo activity
"Cc1cc2cc(O)c(O)cc2c(O)c1-c1c(C)cc2cc(O)c(O)cc2c1O [Compound 13, 3,3′-Dimethyl-2,2′-binaphthyl-1,1′,6,6′,7,7′-hexaol]",induction of apoptosis of the RS11846 cell line,[13],little or no apoptosis
"Cc1cc2c(C(=O)O)c(O)c(O)cc2c(O)c1-c1c(C)cc2c(C(=O)O)c(O)c(O)cc2c1O [Compound 14, 1,1′,6,6′,7,7′-Hexahydroxy-3,3′-dimethyl-2,2′-binaphthyl-5,5′-dicarboxylic acid]",induction of apoptosis of the RS11846 cell line,[13],little or no apoptosis
CN(C)CC[C@H](CSc1ccccc1)Nc1ccc(S(=O)(=O)NC(=O)c2ccc(N3CCN(Cc4ccccc4-c4ccc(Cl)cc4)CC3)cc2)cc1[N+](=O)[O-] [Compound 15],cytotoxic activity against BP3 cell lines,[14],no cytotoxic activity
